Experimental data from PMC7998658, “Phloridzin Acts as an Inhibitor of Protein-Tyrosine Phosphatase MEG2 Relevant to Insulin Resistance” (Molecules, 2021).
Values belong to the molecule of their own block, whether it stands above or below them.

Key:
[1] = target: T1, PTP-MEG2 (megakaryocyte protein tyrosine phosphatase 2, PTPN9) (Homo sapiens, UniProt P43378); assay: SPR on immobilized purified PTP-MEG2; also DiFMUP enzyme inhibition, IC50 =[…], slow-binding
T1 sequence (P43378 1-593): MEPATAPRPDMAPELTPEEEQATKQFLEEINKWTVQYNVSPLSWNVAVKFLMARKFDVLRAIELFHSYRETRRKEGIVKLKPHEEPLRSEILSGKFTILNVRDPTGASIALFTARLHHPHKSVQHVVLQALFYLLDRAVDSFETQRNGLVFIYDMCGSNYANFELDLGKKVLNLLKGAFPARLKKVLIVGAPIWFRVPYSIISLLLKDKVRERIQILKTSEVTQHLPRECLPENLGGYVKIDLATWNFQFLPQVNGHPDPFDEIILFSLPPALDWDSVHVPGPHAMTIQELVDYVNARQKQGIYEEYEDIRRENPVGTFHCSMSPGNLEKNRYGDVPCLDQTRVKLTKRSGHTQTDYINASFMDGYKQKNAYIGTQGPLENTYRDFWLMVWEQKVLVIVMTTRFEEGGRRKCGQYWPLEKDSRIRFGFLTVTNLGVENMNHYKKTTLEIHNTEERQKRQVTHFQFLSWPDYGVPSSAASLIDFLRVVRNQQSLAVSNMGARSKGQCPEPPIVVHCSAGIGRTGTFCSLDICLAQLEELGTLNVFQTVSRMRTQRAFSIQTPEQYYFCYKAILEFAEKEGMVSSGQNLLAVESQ

[2] = substrate: Cc1cc(=O)oc2c(F)c(OP(=O)(O)O)c(F)cc12; assay: fluorogenic substrate hydrolysis by purified enzyme; Km from Lineweaver-Burk plots; format: biochemical, Homo sapiens
Procedure: fluorogenic substrate hydrolysis by purified enzyme; Km from Lineweaver-Burk plots on PTP-MEG2 (megakaryocyte protein tyrosine phosphatase 2, PTPN9) | kinetic constants of PTP-MEG2 were determined using DiFMUP as a fluorogenic PTP substrate

- Kd [1]: 4.66 µM
Molecule: O=C(CCc1ccc(O)cc1)c1c(O)cc(O)cc1O[C@@H]1O[C@H](CO)[C@@H](O)[C@H](O)[C@H]1O [phloridzin]

B1: PTP-MEG2 (megakaryocyte protein tyrosine phosphatase 2, PTPN9) (Homo sapiens) (protein)
chain: T1 sequence (P43378 1-593)
- Km [2]: 163.1 µM
